Experimental data reported in patent US8618085B2, “Therapeutic formulations of desoxyepothilones” (Koasn Biosciences Incorporated, priority 2000, dated 2013).

Assay: Dilution stability of epothilone D formulations, visual appearance
Type: physicochemical
Set-up: key: remained clear; ppt: precipitation; xtal: crystallization
Details: for Visual Appearance RODI Dilution 0 h / Visual Appearance RODI Dilution 12 h / Visual Appearance RODI Dilution 24 h / Visual Appearance RODI Dilution 36 h / Visual Appearance RODI Dilution 48 h: 1:10 into RODI water; for Visual Appearance Initial: undiluted
Method: The dilution stability of epothilone D formulations at 8-20 mg/mL in various formulations was examined. A stock solution of epothilone D (100 mg/mL) was prepared in ethanol. Epothilone D formulations were prepared as listed in the following tables by addition of the requisite amount of ethanol, PEG400, 10% Tween® 80, and either propylene glycol or glycerol to the appropriate volume of the epothilone D stock solution. The solubility of epothilone D in each vial was observed visually following gentle swirling. Each formulation was syringe filtered through a 0.2 micron PVDF filter. Each formulation was subsequently diluted 1:8, 1:10, or 1:12 in reverse osmosis deionized water (RODI) or 0.9% saline. Visual observations were taken upon preparation, upon dilution, and both 1 and 24 hours after incubation at ambient temperature.
The dilution stability up to 48 hours post-dilution was examined for the above formulations containg 8-11 mg/mL of epothilone D after 1:10 dilution into either RODI water or 0.45% saline, as summarized in Tables 12 and 13 below.

[1] = 8 mg/mL epo D in 10% Tween 80, 50% ethanol, 30% PEG400, 10% propylene glycol
[2] = 8 mg/mL epo D in 10% Tween 80, 50% ethanol, 30% PEG400, 10% propylene glycol, 0.9% saline
[3] = 8 mg/mL epo D in 10% Tween 80, 50% ethanol, 30% PEG400, 10% propylene glycol, 1:10 into 0.45% saline
[4] = 8 mg/mL epo D in 10% Tween 80, 60% ethanol, 20% PEG400, 10% glycerol
[5] = 8 mg/mL epo D in 10% Tween 80, 60% ethanol, 20% PEG400, 10% glycerol, 0.9% saline
[6] = 8 mg/mL epo D in 10% Tween 80, 60% ethanol, 20% PEG400, 10% glycerol, 1:10 into 0.45% saline
[7] = 9 mg/mL epo D in 10% Tween 80, 50% ethanol, 30% PEG400, 10% propylene glycol, 1:10 into 0.45% saline
[8] = 9 mg/mL epo D in 10% Tween 80, 50% ethanol, 30% PEG400, 10% propylene glycol
[9] = 9 mg/mL epo D in 10% Tween 80, 60% ethanol, 20% PEG400, 10% glycerol, 1:10 into 0.45% saline
[10] = 9 mg/mL epo D in 10% Tween 80, 60% ethanol, 20% PEG400, 10% glycerol
[11] = 10 mg/mL epo D in 10% Tween 80, 50% ethanol, 30% PEG400, 10% propylene glycol
[12] = 10 mg/mL epo D in 10% Tween 80, 50% ethanol, 30% PEG400, 10% propylene glycol, 0.9% saline
[13] = 10 mg/mL epo D in 10% Tween 80, 50% ethanol, 30% PEG400, 10% propylene glycol, 1:10 into 0.45% saline
[14] = 10 mg/mL epo D in 10% Tween 80, 60% ethanol, 20% PEG400, 10% glycerol
[15] = 10 mg/mL epo D in 10% Tween 80, 60% ethanol, 20% PEG400, 10% glycerol, 0.9% saline
[16] = 10 mg/mL epo D in 10% Tween 80, 60% ethanol, 20% PEG400, 10% glycerol, 1:10 into 0.45% saline

SMILES: C/C1=C/CC(/C(C)=C/c2csc(C)n2)OC(=O)C[C@H](O)C(C)(C)C(=O)[C@H](C)[C@@H](O)[C@@H](C)CCC1 (some centres unmarked) [Epothilone D, Desoxyepothilone B]
- Visual Appearance RODI Dilution 1:08 0 h [1]: clear
- Visual Appearance RODI Dilution 1:08 24 h [1]: clear
- Visual Appearance RODI Dilution 1:10 0 h [1]: clear
- Visual Appearance RODI Dilution 1:10 24 h [1]: clear
- Visual Appearance RODI Dilution 1:12 0 h [1]: clear
- Visual Appearance RODI Dilution 1:12 24 h [1]: clear
- Visual Appearance Saline Dilution 1:08 1 h [2]: xtal
- Visual Appearance Saline Dilution 1:10 1 h [2]: xtal
- Visual Appearance Saline Dilution 1:12 1 h [2]: clear
- Visual Appearance Saline Dilution 1:12 24 h [2]: xtal
- Visual Appearance Saline Dilution 0 h [3]: clear
- Visual Appearance Saline Dilution 12 h [3]: xtal
- Visual Appearance RODI Dilution 0 h [1]: clear
- Visual Appearance RODI Dilution 12 h [1]: clear
- Visual Appearance RODI Dilution 24 h [1]: clear
- Visual Appearance RODI Dilution 36 h [1]: clear
- Visual Appearance RODI Dilution 48 h [1]: clear
- Visual Appearance Initial [1]: clear
- Visual Appearance RODI Dilution 1:08 0 h [4]: clear
- Visual Appearance RODI Dilution 1:08 24 h [4]: clear
- Visual Appearance RODI Dilution 1:10 0 h [4]: clear
- Visual Appearance RODI Dilution 1:10 24 h [4]: clear
- Visual Appearance RODI Dilution 1:12 0 h [4]: clear
- Visual Appearance RODI Dilution 1:12 24 h [4]: clear
- Visual Appearance Saline Dilution 1:08 1 h [5]: clear
- Visual Appearance Saline Dilution 1:08 24 h [5]: xtal
- Visual Appearance Saline Dilution 1:10 1 h [5]: xtal
- Visual Appearance Saline Dilution 1:12 1 h [5]: xtal
- Visual Appearance Saline Dilution 0 h [6]: clear
- Visual Appearance Saline Dilution 12 h [6]: xtal
- Visual Appearance RODI Dilution 0 h [4]: clear
- Visual Appearance RODI Dilution 12 h [4]: clear
- Visual Appearance RODI Dilution 24 h [4]: clear
- Visual Appearance RODI Dilution 36 h [4]: xtal
- Visual Appearance Initial [4]: clear
- Visual Appearance Saline Dilution 0 h [7]: clear
- Visual Appearance Saline Dilution 12 h [7]: xtal
- Visual Appearance RODI Dilution 0 h [8]: clear
- Visual Appearance RODI Dilution 12 h [8]: clear
- Visual Appearance RODI Dilution 24 h [8]: clear
- Visual Appearance RODI Dilution 36 h [8]: clear
- Visual Appearance RODI Dilution 48 h [8]: clear
- Visual Appearance Saline Dilution 0 h [9]: clear
- Visual Appearance Saline Dilution 12 h [9]: xtal
- Visual Appearance RODI Dilution 0 h [10]: clear
- Visual Appearance RODI Dilution 12 h [10]: clear
- Visual Appearance RODI Dilution 24 h [10]: clear
- Visual Appearance RODI Dilution 36 h [10]: xtal
- Visual Appearance RODI Dilution 1:08 0 h [11]: clear
- Visual Appearance RODI Dilution 1:08 24 h [11]: clear
- Visual Appearance RODI Dilution 1:10 0 h [11]: clear
- Visual Appearance RODI Dilution 1:10 24 h [11]: clear
- Visual Appearance RODI Dilution 1:12 0 h [11]: clear
- Visual Appearance RODI Dilution 1:12 24 h [11]: clear
- Visual Appearance Saline Dilution 1:08 1 h [12]: xtal
- Visual Appearance Saline Dilution 1:10 1 h [12]: xtal
- Visual Appearance Saline Dilution 1:12 1 h [12]: xtal
- Visual Appearance Saline Dilution 0 h [13]: clear
- Visual Appearance Saline Dilution 12 h [13]: clear
- Visual Appearance Saline Dilution 24 h [13]: clear
- Visual Appearance Saline Dilution 36 h [13]: xtal
- Visual Appearance Initial [11]: clear
- Visual Appearance RODI Dilution 1:08 0 h [14]: clear
- Visual Appearance RODI Dilution 1:08 24 h [14]: clear
- Visual Appearance RODI Dilution 1:10 0 h [14]: clear
- Visual Appearance RODI Dilution 1:10 24 h [14]: clear
- Visual Appearance RODI Dilution 1:12 0 h [14]: clear
- Visual Appearance RODI Dilution 1:12 24 h [14]: clear
- Visual Appearance Saline Dilution 1:08 1 h [15]: clear
- Visual Appearance Saline Dilution 1:08 24 h [15]: xtal
- Visual Appearance Saline Dilution 1:10 1 h [15]: xtal
- Visual Appearance Saline Dilution 1:12 1 h [15]: xtal
- Visual Appearance Saline Dilution 0 h [16]: clear
- Visual Appearance Saline Dilution 12 h [16]: xtal
